Test results reported in patent publication US20070128217A1 (priority 2003, published 2007).

Experiments:
[1] = tested on: rabbit serum obtained by immunizing a rabbit with the SARS-CoV strain Frankfurt 1; type: binding; design: Binding of a rabbit serum to linear peptides / Binding of a rabbit serum to looped peptides / Rabbit serum linear peptides / Rabbit serum looped peptides / Binding of a rabbit serum to linear peptides of protein N of SARS-CoV Urbani (Rabbit serum linear peptides) / Binding of a rabbit serum to looped/cyclic peptides of protein N of SARS-CoV Urbani (Rabbit serum looped peptides): unit not given here
[2] = tested on: control sera (pooled serum of ten healthy LUMC hospital workers; commercial negative donor pooled serum from the Dutch bloodbank); type: binding, human
[3] = tested on: antibodies in sera from SARS patients (sera 1a, 1b, 2, 6, 37, 62, London, SARS-yellow, SARS-green); type: binding, human; design: Binding of serum 6 to linear peptides of protein X1 of SARS-CoV Urbani / Binding of serum 37 to linear peptides of protein X1 of SARS-CoV Urbani / Binding of serum 6 to looped/cyclic peptide (PEPSCAN-ELISA) / Binding of serum 37 to looped/cyclic peptide (PEPSCAN-ELISA) / Binding of serum 37 to looped/cyclic peptides of protein X1 of SARS-CoV Urbani / Binding of serum 6 to linear peptides of protein X2 / Binding of serum 37 to linear peptides of protein X2 / Binding of serum 37 to looped/cyclic peptides of protein X2 of SARS-CoV Urbani / Binding of serum 6 to linear peptides of protein M of SARS-CoV Urbani / Binding of serum 37 to linear peptides of protein M of SARS-CoV Urbani / Binding of serum 6 to looped/cyclic peptides of protein M of SARS-CoV Urbani / Binding of serum 37 to looped/cyclic peptides of protein M of SARS-CoV Urbani / Binding of serum 6 to linear peptides of protein X3 of SARS-CoV Urbani / Binding of serum 37 to linear peptides of protein X3 of SARS-CoV Urbani / Binding of serum 37 to looped/cyclic peptides of protein X3 of SARS-CoV Urbani / Binding of serum 6 to linear peptides of protein X4 of SARS-CoV Urbani / Binding of serum 37 to linear peptides of protein X4 of SARS-CoV Urbani / Binding of serum 37 to looped/cyclic peptides of protein X4 of SARS-CoV Urbani / Binding of serum 6 to linear peptides of protein X5 of SARS-CoV Urbani / Binding of serum 37 to linear peptides of protein X5 of SARS-CoV Urbani / Binding of serum 37 to looped/cyclic peptides of protein X5 of SARS-CoV Urbani / Binding of serum 6 to linear peptides of protein N of SARS-CoV Urbani / Binding of serum 37 to linear peptides of protein N of SARS-CoV Urbani / Binding of serum 6 to linear peptide (PEPSCAN-ELISA) / Binding of serum 1a to looped/cyclic peptides of protein N of SARS-CoV Urbani / Binding of serum 1b to looped/cyclic peptides of protein N of SARS-CoV Urbani / Binding of serum 2 to looped/cyclic peptides of protein N of SARS-CoV Urbani / Binding of serum 6 to looped/cyclic peptides of protein N of SARS-CoV Urbani / Binding of serum 37 to looped/cyclic peptides of protein N of SARS-CoV Urbani / Binding of serum 62 to looped/cyclic peptides of protein N of SARS-CoV Urbani / Binding of serum London to looped/cyclic peptides of protein N of SARS-CoV Urbani / Binding of serum SARS-green to looped/cyclic peptides of protein N of SARS-CoV Urbani: unit not given here

IQFMMSRRRLLACLC
Binding of a rabbit serum to linear peptides [1]: 0.5 | Binding of a rabbit serum to looped peptides [1]: 1.1 | Binding of Control Serum Blood-Bank to Looped peptides [2]: 0.3 | Binding of Control serum Blood-bank to linear peptides [2]: 0.8 | Binding of Control serum LUMC to linear peptides [2]: 0.6 | Binding of Control serum LUMC to looped peptides [2]: 0.4 | Binding of serum 1a to linear peptides of protein X2 [3]: 0.7 | Binding of serum 1a to looped/cyclic peptides of protein X2 of SARS-CoV Urbani [3]: 0.4 | Binding of serum 1b to linear peptides of protein X2 [3]: 0.5 | Binding of serum 1b to looped/cyclic peptides of protein X2 of SARS-CoV Urbani [3]: 0.2 | Binding of serum 2 to linear peptides of protein X2 [3]: 0.4 | Binding of serum 2 to looped/cyclic peptides of protein X2 of SARS-CoV Urbani [3]: 0.5 | Binding of serum 6 to linear peptides of protein X2 [3]: 0.6 | Binding of serum 6 to looped/cyclic peptides of protein X2 of SARS-CoV Urbani [3]: 0.3 | Binding of serum 37 to linear peptides of protein X2 [3]: 0.6 | Binding of serum 37 to looped/cyclic peptides of protein X2 of SARS-CoV Urbani [3]: 0.2 | Binding of serum 62 to linear peptides of protein X2 [3]: 0.7 | Binding of serum 62 to looped/cyclic peptides of protein X2 of SARS-CoV Urbani [3]: 0.3 | Binding of serum London to linear peptides of protein X2 [3]: 0.5 | Binding of serum London to looped/cyclic peptides of protein X2 of SARS-CoV Urbani [3]: 0.4 | Binding of serum SARS-green to linear peptides of protein X2 [3]: 0.6 | Binding of serum SARS-green to looped/cyclic peptides of protein X2 of SARS-CoV Urbani [3]: 0.2 | Binding of serum SARS-yellow to linear peptides of protein X2 [3]: 0.8 | Binding of serum SARS-yellow to looped/cyclic peptides of protein X2 of SARS-CoV Urbani [3]: 0.5

IQLSLLKVTAFQHQN
Binding of a rabbit serum to linear peptides [1]: 0.6 | Binding of a rabbit serum to looped peptides [1]: 0.5 | Binding of Control Serum Blood-Bank to Looped peptides [2]: 0.6 | Binding of Control serum Blood-bank to linear peptides [2]: 0.4 | Binding of Control serum LUMC to linear peptides [2]: 0.7 | Binding of Control serum LUMC to looped peptides [2]: 0.6 | Binding of serum 1a to linear peptides of protein X2 [3]: 0.5 | Binding of serum 1a to looped/cyclic peptides of protein X2 of SARS-CoV Urbani [3]: 0.5 | Binding of serum 1b to linear peptides of protein X2 [3]: 0.4 | Binding of serum 1b to looped/cyclic peptides of protein X2 of SARS-CoV Urbani [3]: 0.6 | Binding of serum 2 to linear peptides of protein X2 [3]: 0.4 | Binding of serum 2 to looped/cyclic peptides of protein X2 of SARS-CoV Urbani [3]: 0.3 | Binding of serum 6 to linear peptides of protein X2 [3]: 0.5 | Binding of serum 6 to looped/cyclic peptides of protein X2 of SARS-CoV Urbani [3]: 0.4 | Binding of serum 37 to linear peptides of protein X2 [3]: 0.6 | Binding of serum 37 to looped/cyclic peptides of protein X2 of SARS-CoV Urbani [3]: 0.4 | Binding of serum 62 to linear peptides of protein X2 [3]: 0.3 | Binding of serum 62 to looped/cyclic peptides of protein X2 of SARS-CoV Urbani [3]: 0.6 | Binding of serum London to linear peptides of protein X2 [3]: 0.3 | Binding of serum London to looped/cyclic peptides of protein X2 of SARS-CoV Urbani [3]: 0.2 | Binding of serum SARS-green to linear peptides of protein X2 [3]: 0.2 | Binding of serum SARS-green to looped/cyclic peptides of protein X2 of SARS-CoV Urbani [3]: 0.2 | Binding of serum SARS-yellow to linear peptides of protein X2 [3]: 0.3 | Binding of serum SARS-yellow to looped/cyclic peptides of protein X2 of SARS-CoV Urbani [3]: 0.5

ISPKFTTSLSLHKLL
Binding of a rabbit serum to linear peptides [1]: 0.3 | Binding of a rabbit serum to looped peptides [1]: 0.4 | Binding of Control Serum Blood-Bank to Looped peptides [2]: 0.7 | Binding of Control serum Blood-bank to linear peptides [2]: 0.7 | Binding of Control serum LUMC to linear peptides [2]: 0.3 | Binding of Control serum LUMC to looped peptides [2]: 0.5 | Binding of serum 1a to linear peptides of protein X2 [3]: 0.5 | Binding of serum 1a to looped/cyclic peptides of protein X2 of SARS-CoV Urbani [3]: 0.5 | Binding of serum 1b to linear peptides of protein X2 [3]: 0.4 | Binding of serum 1b to looped/cyclic peptides of protein X2 of SARS-CoV Urbani [3]: 0.5 | Binding of serum 2 to linear peptides of protein X2 [3]: 0.4 | Binding of serum 2 to looped/cyclic peptides of protein X2 of SARS-CoV Urbani [3]: 0.4 | Binding of serum 6 to linear peptides of protein X2 [3]: 0.5 | Binding of serum 6 to looped/cyclic peptides of protein X2 of SARS-CoV Urbani [3]: 0.4 | Binding of serum 37 to linear peptides of protein X2 [3]: 0.5 | Binding of serum 37 to looped/cyclic peptides of protein X2 of SARS-CoV Urbani [3]: 0.4 | Binding of serum 62 to linear peptides of protein X2 [3]: 0.6 | Binding of serum 62 to looped/cyclic peptides of protein X2 of SARS-CoV Urbani [3]: 0.7 | Binding of serum London to linear peptides of protein X2 [3]: 0.4 | Binding of serum London to looped/cyclic peptides of protein X2 of SARS-CoV Urbani [3]: 0.3 | Binding of serum SARS-green to linear peptides of protein X2 [3]: 0.5 | Binding of serum SARS-green to looped/cyclic peptides of protein X2 of SARS-CoV Urbani [3]: 0.2 | Binding of serum SARS-yellow to linear peptides of protein X2 [3]: 0.4 | Binding of serum SARS-yellow to looped/cyclic peptides of protein X2 of SARS-CoV Urbani [3]: 0.3
